Assay results taken from US5104854A (priority 1991, dated 1992).
Like-named read-outs stand apart in the source and are kept apart here. Residues, ends and D or L forms follow the SMILES beside them. No end group written: not given here.

Experiments:
[1] = test system: A/WSN strain of influenza virus; assay type: cell-based
[2] = test system: vesicular stomatitis virus; assay type: cell-based
uninfected cells = conditions: tissue culture cells
[3] = test system: intracellular virus protein synthesis; assay type: cell-based, Sindbis virus; conditions: peptide 0.1 mg/ml
Semliki Forest virus = conditions: 4 h, 1 mg/ml
[4] = test system: viral nucleoprotein and matrix protein; assay type: cell-based, influenza virus
[5] = test system: viral ribonucleoprotein particles (RNP)
Sequence of viral ribonucleoprotein particles (RNP) (P15682 whole entry): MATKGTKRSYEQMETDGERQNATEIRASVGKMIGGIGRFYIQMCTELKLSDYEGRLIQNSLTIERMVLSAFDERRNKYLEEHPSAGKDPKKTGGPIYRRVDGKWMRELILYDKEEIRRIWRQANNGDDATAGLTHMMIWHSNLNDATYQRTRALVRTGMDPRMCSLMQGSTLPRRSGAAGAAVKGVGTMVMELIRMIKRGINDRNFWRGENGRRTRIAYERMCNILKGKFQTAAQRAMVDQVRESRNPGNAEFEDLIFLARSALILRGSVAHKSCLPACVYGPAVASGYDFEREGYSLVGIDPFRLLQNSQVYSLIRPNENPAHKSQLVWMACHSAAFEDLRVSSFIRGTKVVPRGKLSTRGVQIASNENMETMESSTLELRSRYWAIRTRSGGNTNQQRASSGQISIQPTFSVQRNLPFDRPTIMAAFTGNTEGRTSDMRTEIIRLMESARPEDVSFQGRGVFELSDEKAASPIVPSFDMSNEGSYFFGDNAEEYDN

N-G-S-L-Q-C-R-I (NGSLQCRI) [8 amino acid peptide lacking the two carboxy-terminal amino acids of HA2 (213-222)]
inhibition of influenza virus release ([1]; specificity tests, E2 (391-399) at 1 mg/ml in FIG. 2): non-inhibitory

CCCCCCCC(=O)N[C@@H](CC(C)C)C(=O)N[C@H](C(=O)N1CCC[C@H]1C(=O)N[C@@H](Cc1ccc(O)cc1)C(=O)N[C@@H](C)C(=O)N[C@@H](CC(C)C)C(=O)N[C@@H](C)C(N)=O)[C@@H](C)O [OCTANOYLATED HEPTAPEPTIDE L-T-P-Y-A-L-A, L-T-P-Y-A-L-A] (HELM PEPTIDE1{[CCCCCCCC(=O)[*:2]].L.T.P.Y.A.L.A.[am]}$$$$V2.0)
effect on cells infected with vesicular stomatitis virus [2]: no effect
inhibition of vesicular stomatitis virus formation and secretion [2]: no inhibition
effect on uninfected cells (uninfected cells): no effect
inhibition of intracellular virus protein synthesis [3]: no inhibition
increase of inhibitory potency by addition of an octanoyl group (Sindbis virus): 10 fold
effect on cells infected with influenza [1]: no effect

LTPYAL-NH2 [HEXAPEPTIDE L-T-P-Y-A-L, L-T-P-Y-A-L]
Degree of Inhibition (Semliki Forest virus): 36%

N-G-S-L-Q-C-R-I-C-I-NH2 (NGSLQCRICI-NH2; cysteine pairing not given here) [HA2 (213-222), residues 213-222 at the carboxy terminus of the HA2 of A/WSN strain of influenza virus]
block of release of vesicular stomatitis virus ([2]; 200 μg/ml): 15%
changes in synthesis of intracellular viral nucleoprotein and matrix protein ([4]; increasing amounts of peptide): No significant changes
Incorporation (% of control) ([4]; peptide level 20 μg/ml): 110 +/-12 % of control
Incorporation (% of control) ([4]; peptide level 50 μg/ml): 108 +/-12 % of control
Incorporation (% of control) ([4]; peptide level 100 μg/ml): 94 +/-9 % of control
Incorporation (% of control) ([4]; peptide level 200 μg/ml): 83 % of control
Incorporation (% of control) ([4]; peptide level 250 μg/ml): 97 % of control
nucleoprotein in the RNP peak, % of the total cytoplasmic nucleoprotein [5]: 19%
block in the release of Sindbis virus (Sindbis virus; 200 μg/ml): no block
half-maximal dose, inhibition of virus particle secretion [1]: less than 50 μg/ml
inhibition of release of influenza virus particles ([1]; 150 μg/ml peptide (RNP test)): 70%
inhibition of release of influenza virus ([1]; 200 μg/ml): 90%
block of virus particle secretion ([1]; 250 μg/ml (225 μM)): > 90%
IC50 ([1]; read-out: half-maximal dose, inhibition of virus particle secretion): < 45 µM
